The target of the test is Estrogen receptor beta (Homo sapiens, UniProt Q92731). The test can be described thus: competitive ligand binding to estrogen receptor beta – cell-based, Cos7 ERbeta-GFP, E2-Alexa633, flow cytometry, dose response (AID 1221). (In general: A flow cytometer gives signals particle by particle.)
[1] abbreviates: inactive by the depositor's call.

Structures can show the parent of a compound that is named as a salt. A value given as a limit tells only on which side of the number the result lay.

Chain of Estrogen receptor beta (Q92731 whole entry): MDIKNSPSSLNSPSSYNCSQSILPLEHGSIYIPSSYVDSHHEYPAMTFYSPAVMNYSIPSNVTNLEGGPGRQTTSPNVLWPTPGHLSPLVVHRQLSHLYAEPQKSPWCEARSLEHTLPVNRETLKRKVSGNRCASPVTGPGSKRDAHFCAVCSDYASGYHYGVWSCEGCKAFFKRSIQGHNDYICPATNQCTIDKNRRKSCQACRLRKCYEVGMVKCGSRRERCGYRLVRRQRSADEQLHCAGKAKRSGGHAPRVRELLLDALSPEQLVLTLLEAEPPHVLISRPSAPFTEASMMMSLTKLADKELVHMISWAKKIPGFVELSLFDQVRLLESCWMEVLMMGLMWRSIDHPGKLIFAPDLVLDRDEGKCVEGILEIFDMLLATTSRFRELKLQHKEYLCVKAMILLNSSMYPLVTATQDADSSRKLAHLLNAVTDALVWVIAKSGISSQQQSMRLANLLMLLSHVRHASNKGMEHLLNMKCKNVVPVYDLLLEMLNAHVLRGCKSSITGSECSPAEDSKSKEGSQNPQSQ

One may read the EC50 as the concentration needed to bring the measured effect to its halfway point. `COc1ccc(NS(=O)(=O)c2ccc3c(c2)[C@H]2C=CC[C@H]2[C@@H](c2ccc(C(=O)O)cc2)N3)cc1`: under setting [1], the EC50 turned out to be 2.28 µM. For `Nc1ccc(-c2nc3cc([N+](=O)[O-])ccc3[nH]2)cc1`, the concentration for a half-maximal effect (EC50) under setting [1] is 2.35 µM. Take `CC(=O)c1ccc2c(c1)[C@@H]1C=CC[C@@H]1[C@H](c1cc3c(cc1Br)OCO3)N2`: the midpoint of the response, the EC50, lay at 0.184 µM. The same measure, in the same setting: the figure for `CC(=O)c1ccc2c(c1)C1C=CCC1C(c1cccc([N+](=O)[O-])c1)N2` (centres undefined) [1-[4-(3-nitrophenyl)-3a,4,5,9b-tetrahydro-3H-cyclopenta[c]quinolin-8-yl]ethanone] is over 10 µM; for `COc1ccccc1N1CCN(C(=O)c2ccc3nc(-c4ccco4)c(-c4ccco4)nc3c2)CC1` [2,3-di-2-furyl-6-{[4-(2-methoxyphenyl)piperazin-1-yl]carbonyl}quinoxaline] it is 0.00087 µM. `O=C(OCC(=O)N1CCN(C(=O)c2ccco2)CC1)c1cc(-c2ccco2)nc2ccccc12` [2-(2-furanyl)-4-quinolinecarboxylic acid [2-[4-[2-furanyl(oxo)methyl]-1-piperazinyl]-2-oxoethyl] ester]: under setting [1], the EC50 is 0.0163 µM. Consider `O=C(Nc1cc(C(F)(F)F)ccc1N1CCOCC1)C1Cc2ccccc2CN1C(=O)c1ccco1` (centres undefined) [2-(2-furoyl)-N-[2-morpholino-5-(trifluoromethyl)phenyl]-3,4-dihydro-1H-isoquinoline-3-carboxamide], for which a half-maximal effect (EC50) was put at 1.26 µM.

The compound `CCn1nnc(NC(=O)CSc2ccc(Cl)cc2)n1` [2-(4-chlorophenyl)sulfanyl-N-(2-ethyl-1,2,3,4-tetrazol-5-yl)ethanamide] registered an EC50 of over 10 µM.

`CCc1ccc(-c2nn(-c3ccccc3)cc2CSC(=N)N)cc1` [2-[[3-(4-ethylphenyl)-1-phenyl-pyrazol-4-yl]methyl]isothiourea;hydrochloride]: a half-maximal effect (EC50) was put at 0.0399 µM. For the compound `Cc1cc(-c2nn3c(-c4ccccc4)nnc3s2)c2ccccc2n1` [2-methyl-4-(3-phenyl[1,2,4]triazolo[3,4-b][1,3,4]thiadiazol-6-yl)quinoline], under setting [1], the EC50 turned out to be 4.18 µM. Still for that read-out and setting: the figure for `CCCCOC(=O)c1c(C)oc2ccc(NS(=O)(=O)c3ccc4c5c(cccc35)C(=O)N4)cc12` [2-methyl-5-[(2-oxo-1H-benzo[cd]indol-6-yl)sulfonylamino]-3-benzofurancarboxylic acid butyl ester] is 0.0837 µM. `Cc1oc2cc(O)ccc2c(=O)c1Oc1ccccc1` [2-methyl-7-oxidanyl-3-phenoxy-chromen-4-one] registered a concentration for a half-maximal effect (EC50) under setting [1] of 0.438 µM.

The compound `CC(=O)Oc1ccc(C2Nc3c(C(=O)O)ccc([N+](=O)[O-])c3C3C=CCC32)cc1` (centres undefined) [4-(4-acetoxyphenyl)-9-nitro-3a,4,5,9b-tetrahydro-3H-cyclopenta[c]quinoline-6-carboxylic acid] came in with a concentration for a half-maximal effect (EC50) of over 10 µM. Still for that read-out and setting: the figure for `O=C(COC(=O)CCC(=O)c1cccs1)NCc1ccco1` [4-keto-4-(2-thienyl)butyric acid [2-(2-furfurylamino)-2-keto-ethyl] ester] is 0.00174 µM. Turning to `Cc1ccc(C(=O)N/N=C/c2ccc([N+](=O)[O-])s2)cc1` [4-methyl-N-[(5-nitro-2-thiophenyl)methylideneamino]benzamide], the concentration giving a half-maximal response (EC50) under setting [1] stood at 0.0707 µM. Take `Nc1ncnc2c1ncn2C1CCC(CO)C(O)C1` (centres undefined) [5-(6-aminopurin-9-yl)-2-(hydroxymethyl)-1-cyclohexanol]: the EC50 stood at 0.00214 µM. The same measure, in the same setting: the figure for `O=C(c1cc2ncc(Br)cn2n1)N1CCN(C(=O)c2ccco2)CC1` [6-bromo-2-{[4-(2-furoyl)-1-piperazinyl]carbonyl}pyrazolo[1,5-a]pyrimidine] is 0.00273 µM; for `O=C(O)c1ccc([N+](=O)[O-])c2c1NC(c1ccccc1)C1CC=CC21` (centres undefined) [9-nitro-4-phenyl-3a,4,5,9b-tetrahydro-3H-cyclopenta[c]quinoline-6-carboxylic acid] it is 0.00065 µM. Compound `Cc1cc(C)c2c(c1)[C@@H]1C=CC[C@@H]1[C@H](c1ccc(S(=O)(=O)N3CCOCC3)cc1)N2` [(3aS,4R,9bR)-6,8-dimethyl-4-[4-(morpholin-4-ylsulfonyl)phenyl]-3a,4,5,9b-tetrahydro-3H-cyclopenta[c]quinoline] returned an EC50 under setting [1] of 0.165 µM. The same measure, in the same setting: the figure for `O=C(O)c1cc(Cl)c2c(c1)[C@@H]1C=CC[C@@H]1[C@H](c1ccc(S(=O)(=O)N3CCOCC3)cc1)N2` [(3aS,4R,9bR)-6-chloranyl-4-(4-morpholin-4-ylsulfonylphenyl)-3a,4,5,9b-tetrahydro-3H-cyclopenta[c]quinoline-8-carboxylic acid] is 0.729 µM; for `C[C@]12CC[C@@H]3c4ccc(O)cc4C(=O)C[C@H]3[C@@H]1CC[C@@H]2O` [(8R,9S,13S,14S,17S)-13-methyl-3,17-bis(oxidanyl)-8,9,11,12,14,15,16,17-octahydro-7H-cyclopenta[a]phenanthren-6-one] it is 0.0381 µM. For `CCC(=O)Oc1ccc(C(CC)C(CC)c2ccc(OC(=O)CC)cc2)cc1` (centres undefined) [HEXESTROL DIPROPIONATE], a half-maximal response (EC50) required 0.00769 µM. As to `COc1ccc(CNC(=O)c2cc(-c3cccs3)on2)cc1` [MLS000087249], a half-maximal effect under setting [1] (EC50) was put at 0.0994 µM. `O=C1C=C/C(=C2/Nc3ccc4ccccc4c3C3=C2CCC3)C=C1O` [SMR000184811] registered an EC50 of over 10 µM.

The values are drawn from BindingDB's records for doi:10.7270/Q2VQ313H (Nmmlsc, 2008).
